What was measured:
[1] = test system: isolated macaque cardiomyocytes; assay: Sarcomeric contraction of field-stimulated (1 Hz) isolated single cardiomyocytes; format: cell-based
Source text: In addition to SIV, the chemokines CCL3, CCL4, and CCL5 can also bind to CCR5 and initiate signaling pathways. In order to evaluate the ability of CCL5 to alter sarcomeric contraction in a CCR5-dependent manner, isolated single cardiomyocytes were field stimulated (1 Hz) and sarcomeric contraction measured over time.

[2] = test system: isolated macaque cardiomyocytes; assay: Calcium transient amplitude in isolated cardiomyocytes; format: cell-based; conditions: FIG. 1E, ANOVA P=0.72
[3] = test system: SIV/17E-Fr and SIV/DeltaB670; assay: SIV-infected rhesus macaques: survival, CD4+ cell count and viral loads; format: in vivo
Source text: Twenty-two adult rhesus macaques (mean age=11 years) pre-screened for SIV, STLV-1, and simian type D retrovirus were inoculated intravenously with the macrophagetropic clone SIV/17E-Fr and the immunosuppressive swarm SIV/DeltaB670 (FIG. 3). Age-matched adult rhesus macaques (mean age=11 years) were inoculated with media alone as controls. […] At euthanasia, all animals were perfused with saline to remove blood from the systemic vasculature. Hearts were immediately harvested and samples were immersion fixed in Streck Tissue Fixative (Streck, Omaha, Nebr.) or flash frozen.

[4] = test system: CD68+ macrophages and CD163 expression in the myocardium; assay: Immunostaining for macrophage markers CD68 and CD163 in myocardium; format: in vivo, rhesus macaques; conditions: SIV-infected macaques, FIG. 8
Source text: To characterize the mononuclear cell populations in myocardium, sections were immunostained for the macrophage marker CD68 and measured by quantitative image analysis. In uninfected animals, CD68+ immunostaining localized to single, round cells located diffusely throughout the myocardium with increased numbers around vessels, consistent with resident macrophages. In SIV-infected animals, CD68+macrophages in perivascular areas were more prominent, likely reflecting recruited, infiltrating macrophages. […] Myocardium was also immunostained for the macrophage marker CD 163. […] In control animals, spindle shaped CD163+ cells were present diffusely throughout the myocardium occasionally forming small clusters. In SIV-infected macaques, cells were similarly spindle shaped to stellate with more extensive cellular processes. […] Myocardial CD163 immunostaining was highly correlated with CD68 immunostaining.

[5] = test system: SIV/17E-Fr and SIV/DeltaB670; assay: SIV RNA levels in plasma, CSF, spleen and brain by qRT-PCR; format: in vivo, rhesus macaques; conditions: 200 mg PO BID from day 24 to day 180 post-inoculation
Protocol: (§1) To determine whether the CCR5 antagonist maraviroc altered CNS disease progression, SIV-infected animals from were treated with maraviroc and CNS outcomes were compared with untreated SIV-infected animals. Specifically, six rhesus macaques were inoculated with SIV/17E-Fr and SIV/DeltaB670 and treated with maraviroc (200 mg PO BID) beginning 24 days post-inoculation until the study endpoint 180 days postinoculation, 22 SIV-infected animals served as untreated, SIV-infected controls, and 8 additional animals served as untreated, uninfected controls (Example 2). Maraviroc levels in plasma and CSF were measured using liquid chromatography tandem mass spectrometry. SIV RNA levels in plasma, CSF, spleen, and brain were measured by qRT-PCR. Immunostaining for CD68 and amyloid precursor protein (APP) in the brain was measured by digital image analysis. Group comparisons were performed by the Mann-Whitney test.

[6] = test system: CD68 and amyloid precursor protein (APP) in the brain; assay: Immunostaining for CD68 and amyloid precursor protein (APP) in the brain; format: in vivo, rhesus macaques; conditions: 200 mg PO BID
Protocol: as §1

SIV-infected macaques = conditions: echocardiography, FIG. 7
[7] = SIV-infected macaques, 40 mg/kg orally twice per day
[8] = versus untreated SIV-infected macaques

## 4,4-difluoro-N-{(1S)-3-[exo-3-(3-isopropyl-5-methyl-4H-1,2,4-triazol-4-yl)-8-azabicyclo[3.2.1]oct-8-yl]-1-phenylpropyl}cyclohexanecarboxamide [maraviroc]
[1]; addition after CCL5, FIG. 1A-1C
  effect on the induced reduction in sarcomeric contraction: reversed
[1]; after CCL5, P=0.72
  difference in shortening between baseline and treatment: no significant difference
[1]; subsequent addition in the same cells, FIG. 1D
  effect on the CCL5-induced decrease in sarcomeric shortening: modulated the CCL5 effect towards basal contraction
[2]; RANTES+MVC treatment
  calcium transient amplitude: not altered
[3]; FIG. 6, LTP over 180 days post-SIV inoculation
  outcomes (CSF, plasma, spleen, heart viral load) versus rapid (RP) and long term progression (LTP) groups: improves outcomes in both RP and LTP groups
[3]; [7]
  CD4+ cell counts: increased
  survival relative to the untreated cohort: significantly increased
  viral load in CSF: reduced
  viral load in heart: reduced
  viral load in plasma: reduced
  viral load in spleen: reduced
[4]
  CD68+ macrophage level in myocardium: do not change
  CD163 expression by macrophages in myocardium: lowered to levels present in uninfected and untreated subjects
[5]
  SIV RNA levels in spleen: reduced
  plasma viral load: reduced
[5]; [8]
  SIV RNA levels in CSF: significantly lower
  SIV RNA levels in brain: significantly lower
[6]; P<0.001, FIG. 10
  CNS macrophage activation represented by CD68 immunostaining: lowered
[6]; P=0.003, FIG. 10
  axonal APP immunostaining: lowered
SIV-infected macaques
  mitral inflow parameters consistent with diastolic dysfunction with impaired relaxation: significantly ameliorated

B1: CCL5: specific chemokine ligand that can bind to CCR5 and initiate signaling pathways (protein, UniProt P13501 24-91, looked up)
C-C motif chemokine 5: SPYSSDTTPCCFAYIARPLPRAHIKEYFYTSGKCSNPAVVFVTRKNRQVCANPEKKWVREYINSLEMS
[1]; 14 VCM, mean of 20 contraction cycles/cell at steady state, FIG. 1D, p<0.001
  sarcomeric shortening: significantly decreased
[1]; isolated macaque cardiomyocytes, FIG. 1C, P=0.009
  mean % decline in contraction from baseline contraction length: 22%
[2]; RANTES treatment
  calcium transient amplitude: not altered
